Data taken from patent publication US20030083374A1, “NAALADase inhibitors useful as pharmaceutical compounds and compositions” (priority 1998, published 2003).

Test system: cortical cell cultures
Assay: in vitro assay of NAALADase inhibitors on ischemia in cortical cell cultures
Assay type: cell-based
Conditions: concentration required to cause a 50% reduction in glutamate toxicity following an ischemic insult (potassium cyanide and 2-deoxyglucose)
Excerpt: Some results are set forth in U.S. Pat. Nos. 5,672,592, 5,795,877, 5,863,536, 5,880,112 and 5,902,817, allowed U.S. patent application Ser. Nos. 08/825,997, 08/833,628, 08/842,360 and 08/899,319 for which the issue fees have been paid, the entire contents of which patents and applications are herein incorporated by reference. Other results are provided below in TABLE III.

| SMILES | EC50 |
| --- | --- |
| CC(CS)C(CCC(=O)O)C(=O)O (stereo not shown) [2-(1-methyl-2-sulfanylethyl)pentanedioic acid] | 141 nM |
| O=C(O)CCC(CP(=O)(O)C(NCc1ccccc1)c1ccccc1)C(=O)O (stereo not shown) | 1 nM |
| O=C(O)CCC(CCSSCCC(CCC(=O)O)C(=O)O)C(=O)O (stereo not shown) [2-[2-[(3,5-dicarboxypentyl)dithio]ethyl]pentanedioic acid] | 17 nM |
| CCCCC(S)CC(CCC(=O)O)C(=O)O (stereo not shown) [2-(2-sulfanylhexyl)pentanedioic acid] | 1000 nM |
| O=C(O)CCC(CP(=O)(O)CN1C(=O)c2ccccc2C1=O)C(=O)O (stereo not shown) | 13 nM |
| O=C(O)CCC(CCCCS)C(=O)O (stereo not shown) [2-(4-sulfanylbutyl)pentanedioic acid] | 36 nM |
| O=C(O)CCC(CP(=O)(O)CNCc1ccccc1)C(=O)O (stereo not shown) | 0.9 nM |
| O=C(O)CCC(CP(=O)(O)CNc1ccc(F)cc1)C(=O)O (stereo not shown) | 3 nM |
| O=C(O)CCC(CC(S)c1ccccc1)C(=O)O (stereo not shown) [2-(2-phenyl-2-sulfanylethyl)pentanedioic acid] | 29 nM |
| Cc1ccc(NCP(=O)(O)CC(CCC(=O)O)C(=O)O)cc1 (stereo not shown) | 11 nM |
| CCC(CS)C(CCC(=O)O)C(=O)O (stereo not shown) [2-(1-ethyl-2-sulfanylethyl)pentanedioic acid] | 62 nM |
| O=C(O)CCC(CP(=O)(O)CC(CCC(=O)O)C(=O)O)C(=O)O (stereo not shown) | 0.04 nM |
| COc1ccc(NCP(=O)(O)CC(CCC(=O)O)C(=O)O)cc1 (stereo not shown) | 10 nM |
| O=C(O)CCC(CP(=O)(O)CNc1ccccc1)C(=O)O (stereo not shown) | 12 nM |
| O=C(O)CCC(CP(=O)(O)CC(CCC(=O)OCc1ccccc1)C(=O)OCc1ccccc1)C(=O)O (stereo not shown) | 0.01 nM |
| CC(C)(C)c1ccc(NCP(=O)(O)CC(CCC(=O)O)C(=O)O)cc1 (stereo not shown) | 35 nM |
| O=C(O)CCC(CCCS)C(=O)O (stereo not shown) [2-(3-sulfanylpropyl)pentanedioic acid] | 13 nM |
| CC(CS)CC(CCC(=O)O)C(=O)O (stereo not shown) [2-(3-sulfanyl-2-methylpropyl)pentanedioic acid] | 80 nM |
| O=C(O)CCC(CP(=O)(O)CNS(=O)(=O)c1ccccc1)C(=O)O (stereo not shown) | 792 nM |

Test system: rat MCAO model of stroke
Assay: in vivo assay on brain injury following MCAO
Design: species or system Sprague-Dawley rats
Conditions: 30 mg/kg IV bolus + 6 mg/kg/hr IV infusion 4 hours, 120 minutes post-occlusion
Description: The control group received Hepes buffered saline.
Four drug treated groups received Compound 1. For each rat, the treatment was initiated at 60 minutes post middle cerebral artery occlusion (MCAO) by an IV bolus injection which was immediately followed by IV infusion for 4 hours at rate of 0.5 ml/hr. Group 1 (n=9) received a dose of 100 mg/kg IV bolus followed by 20 mg/kg/hr IV infusion for 4 hours. Group 2 (n=11) received a dose of 30 mg/kg IV bolus followed by 6 mg/kg/hr IV infusion for 4 hours. Group 3 (n=9) received a dose of 10 mg/kg IV bolus followed by 2 mg/kg/hr IV infusion for 4 hours. Group 3 rats were also treated at 120 minutes, 180 minutes and 360 minutes post-occlusion. Group 4 (n=8) received a dose of 3 mg/kg IV bolus followed by […] IV infusion for 4 hours.
Two additional drug treated groups received 2-(3-sulfanylpropyl)pentanedioic acid. For each rat, the treatment was initiated at 120 minutes post middle cerebral artery occlusion (MCAO) by an IV bolus injection which was immediately followed by IV infusion for 4 hours at rate of 0.5 ml/hr. Group 5 received a dose of 30 mg/kg IV bolus followed by 6 mg/kg/hr IV infusion for 4 hours. Group 6 received a dose of 10 mg/kg IV bolus followed by 2 mg/kg/hr IV infusion.
Twenty two hours following the reperfusion, the rats were euthanized and their brains were removed. Seven coronal sections (2 mm thick) were taken and stained with 1% solution of 2,3,5-triphenyl-tetraxolium chloride (TTC) for 20 minutes and then fixed in 10% formalin. The anterior and posterior surface of the most rostral brain section and the posterior surface of each of the remaining 6 sections were imaged. The quantification of infarct size of each brain was obtained using a computer aided-digital imaging analysis system (LOATS). The brain regions completely lacking TTC-staining were characterized as representative of infarcted tissue. The total infarct volume for each rat was calculated by numeric integration of the respective sequential brain areas.
Male Sprague-Dawley rats (260-320 g) were used. They were individually housed and allowed free access to food and water. Two days prior to the experiment, they were given restricted food if necessary to maintain the body weight Each rat received two surgeries: femoral vein cannulation for IV infusion and MCAO. During surgeries, the rat was anesthetized with 1.5% halothane delivered in oxygen via an inhalation mask. The body temperature was monitored and regulated at normothermic level using a homeothermic heating system. First, a catheter was inserted into the left femoral vein. Thirty minutes later, the rat was reanesthetized for MCAO surgery. The MCAO was achieved using the endovascular suture method described by Long et al., Stroke, Vol. 20, pp. 84-91 (1989). Specifically, the right external carotid artery (ECA) was exposed, coagulated and transected. A 3-0 monofilament nylon suture with a blunted tip and a coat of 0.05% Poly-1-Lysine was introduced into the proximal stump of the ECA via an arteriotomy. It was advanced 22 mm from the carotid bifurcation until it lodged in the proximal region of the anterior cerebral artery, thereby occluding the origin of the MCA. The rats were allowed to wake up; 2 hours later, the rats were reanesthetized for reperfusion, during which the nylon suture was retracted to the stump of the ECA allowing blood recirculation to the MCA.

| SMILES | infarct size vs. vehicle treated rats |
| --- | --- |
| O=C(O)CCC(CCCS)C(=O)O (stereo not shown) [2-(3-sulfanylpropyl)pentanedioic acid] | significantly smaller infarct size |

Same assay, conditions: TABLE IV(b); dose 10 mg/kg, 120 minutes post MCAO

| SMILES | % Protect |
| --- | --- |
| O=C(O)CCC(CCCS)C(=O)O (stereo not shown) [2-(3-sulfanylpropyl)pentanedioic acid] | 21% |

Same assay, conditions: TABLE IV(b); dose 30 mg/kg, 120 minutes post MCAO

| SMILES | % Protect |
| --- | --- |
| O=C(O)CCC(CCCS)C(=O)O (stereo not shown) [2-(3-sulfanylpropyl)pentanedioic acid] | 52% |

Test system: not listed separately
Assay: Example 14: each of the Examples and in vitro and in vivo assays described above
Conditions: each of their respective assays and Examples

| SMILES | in vitro or in vivo activity |
| --- | --- |
| CC(S)CC(CCC(=O)O)C(=O)O (stereo not shown) [2-(2-sulfanylpropyl)pentanedioic acid] | exhibit in vitro or in vivo activity |
| O=C(O)CCC(CCCS)C(=O)O (stereo not shown) [2-(3-sulfanylpropyl)pentanedioic acid] | exhibit in vitro or in vivo activity |

Test system: LNCaP cells
Assay: not given
Conditions: as the concentration increased; cited from earlier work

| SMILES | LNCaP cell proliferation |
| --- | --- |
| N[C@@H](Cn1oc(=O)[nH]c1=O)C(=O)O [quisqualic acid, reference compound] | decreased significantly |
